“Also recorded” adds a separate entry of the source.
Columns and labels:
cereblon to IKZF1 = target: T1, cereblon to IKZF1 (Homo sapiens, UniProt Q96SW2); assay: Cereblon binding assay with cell extracts (anti-HA immunoprecipitation), IKZF1; details: wild-type FLAG-HA-CRBN; compound added directly into the binding assay
T1 construct: expressed in transfected cells; host or cells: 293FT CRBN-/- cells (transient transfection; cell extracts, anti-HA immunoprecipitation)
Text: (§1) FIG. 3A illustrates FLAG-HA tagged cereblon wild-type (FLAG-HA-CRBN) or Y384A/W386A mutant (FLAG-HA-YWAA) produced in 293FT CRBN−/− cells was used to capture V5 tagged GSPT1 (GSPT1-V5) and V5 tagged IKZF1 (IKZF1-V5) transiently expressed in 293FT CRBN−/− cells. […] FIG. 3B illustrates the surface representation of GSPT1 in complex with cereblon, DDB1 and Compound D, with DDB1 shown in purple, cereblon in blue, and GSPT1 in orange. The position of Compound D is shown with a white arrow. FIG. 3C illustrates the Fo-Fc omit electron density (green mesh) for Compound D (yellow sticks) contoured at 3.06. […] Hydrogen bond interactions between cereblon and the GPST1 β-hairpin are shown as yellow dashes. FIG. 3E illustrates details of the binding interface between cereblon and GSPT1. Compound D is represented as yellow sticks. Predicted polar interactions between Compound D and cereblon are shown as yellow dashes. FIG. 3F illustrates the immunoblot analysis of U937 parental cells or cells stably expressing HA-GSPT1-G575N. Cells were treated with DMSO or Compound D at the indicated concentrations. FIGS. 3G and 311 illustrate the immunoblot analysis (left panel) and cell proliferation (right panel) of MOLM-13 (FIG. 3G) and OCI-AML2 (FIG. 311) parental cells and cells stably expressing HA tagged GSPT1-G575N. Cells were treated with DMSO or Compound D at indicated concentrations.

cereblon to GSPT1 [1] = target: T2, cereblon to GSPT1 (Homo sapiens, UniProt P15170+Q96SW2, W386A/Y384A); assay: Cereblon binding assay with cell extracts (anti-HA immunoprecipitation), GSPT1; details: FLAG-HA-YWAA mutant
T2 construct: expressed in transfected cells; host or cells: 293FT CRBN-/- cells (transient transfection; cell extracts, anti-HA immunoprecipitation)
Text: as §1

cereblon to GSPT1 [2] = target: T3, cereblon to GSPT1 (Homo sapiens, UniProt P15170+Q96SW2); assay: as above; details: wild-type FLAG-HA-CRBN; compound added directly into the binding assay
T3 construct: expressed in transfected cells; host or cells: 293FT CRBN-/- cells (transient transfection; cell extracts, anti-HA immunoprecipitation)
Text: as §1

GSPT1 [3] = target: T4, GSPT1 (Homo sapiens, UniProt P15170, G437N); assay: Immunoblot analysis of Compound D-induced GSPT1 degradation in AML cells; assay type: cell-based; details: U937, MOLM-13, OCI-AML2 stably expressing HA-GSPT1-G575N
T4 construct: endogenous in cells; host or cells: KG-1 (TMT proteomics); KG1, U937 / U937-Cas9, MOLM-13, OCI-AML2 (immunoblots)
Description: (§2) FIG. 2A illustrates the volcano plot of differentially abundant proteins in response to Compound D treatment relative to the DMSO control. KG1 cells were treated with DMSO or 100 nM Compound D for 4 hours and subjected to TMT proteomics analysis. The X-axis denotes the log 2-fold change of Compound D versus the DMSO control for each protein. P-values were corrected for multiple hypothesis testing using the Benjamini-Hoschberg method to arrive at an adjusted-P-value (adj-P, also known as a false discovery rate). The y-axis denotes the −log 10 (adj-P) values indicating statistical significance such that proteins lying above the dotted red line are statistically significant findings with adjusted P-values<0.05. FIG. 2B illustrates the immunoblot analysis of KG1 and U937 cells treated with DMSO or Compound D for 4 hours. Where indicated, cells were pretreated with Bortezomib or MLN4924 for 30 minutes. FIGS. 2C and 2D illustrate the immunoblot analysis (FIG. 2C) and cell proliferation (FIG. 2D) of U937-Cas9 parental cells or cells stably transduced with lentiviral vectors expressing a non-targeting sgRNA (sgNT-1), a sgRNA targeting a non-coding region (sgNC-8), or a sgRNA targeting CRBN(sgCRBN-8). Cells were treated with DMSO or Compound D at indicated concentrations. FIGS. 2E and 2F illustrate the immunoblot analysis (left panel) and cell proliferation (right panel) of MOLM-13 (FIG. 2E) and OCI-AML2 (FIG. 2F) parental and CRBN−/− cells. Cells were treated with DMSO or Compound D at indicated concentrations. Results shown in all figure panels are representative of three biological replicates. Data in FIGS. 2D, 2E (right panel), and 2F (right panel) are shown as mean±SD, n=3 technical replicates.
(§3) FIG. 3A illustrates FLAG-HA tagged cereblon wild-type (FLAG-HA-CRBN) or Y384A/W386A mutant (FLAG-HA-YWAA) produced in 293FT CRBN−/− cells was used to capture V5 tagged GSPT1 (GSPT1-V5) and V5 tagged IKZF1 (IKZF1-V5) transiently expressed in 293FT CRBN−/− cells. […] FIG. 3B illustrates the surface representation of GSPT1 in complex with cereblon, DDB1 and Compound D, with DDB1 shown in purple, cereblon in blue, and GSPT1 in orange. The position of Compound D is shown with a white arrow. FIG. 3C illustrates the Fo-Fc omit electron density (green mesh) for Compound D (yellow sticks) contoured at 3.06. FIG. 3D illustrates GSPT1's interaction with cereblon is mediated by a β-hairpin loop. Hydrogen bond interactions between cereblon and the GPST1 β-hairpin are shown as yellow dashes. FIG. 3E illustrates details of the binding interface between cereblon and GSPT1. Compound D is represented as yellow sticks. Predicted polar interactions between Compound D and cereblon are shown as yellow dashes. FIG. 3F illustrates the immunoblot analysis of U937 parental cells or cells stably expressing HA-GSPT1-G575N. Cells were treated with DMSO or Compound D at the indicated concentrations. FIGS. 3G and 311 illustrate the immunoblot analysis (left panel) and cell proliferation (right panel) of MOLM-13 (FIG. 3G) and OCI-AML2 (FIG. 311) parental cells and cells stably expressing HA tagged GSPT1-G575N. Cells were treated with DMSO or Compound D at indicated concentrations.
(§4) Like all other cereblon modulators, Compound D contains a glutarimide ring (FIG. 1A) that can bind cereblon and redirect it to target neosubstrates for degradation. Thus, the effect of Compound D on the global proteome in AML cell line KG-1 was assessed using tandem mass tag (TMT) quantitative mass spectrometry.
(§5) Specifically, U937 cells stably expressing Cas9 were infected with lentiviral vectors constitutively expressing RFP and non-targeting or non-coding sgRNA (sgNT) controls, or sgRNAs targeting TSC1 or TSC2. Infected cells were selected with 1 μg/ml puromycin. […]

GSPT1 [4] = target: T5, GSPT1 (Homo sapiens, UniProt P15170); assay: as above; assay type: cell-based
T5 construct: endogenous in cells; host or cells: KG-1 (TMT proteomics); KG1, U937 / U937-Cas9, MOLM-13, OCI-AML2 (immunoblots)
Description: as §2, §3, §4, §5

T5 sequence (P15170 1-637 isoform P15170-3): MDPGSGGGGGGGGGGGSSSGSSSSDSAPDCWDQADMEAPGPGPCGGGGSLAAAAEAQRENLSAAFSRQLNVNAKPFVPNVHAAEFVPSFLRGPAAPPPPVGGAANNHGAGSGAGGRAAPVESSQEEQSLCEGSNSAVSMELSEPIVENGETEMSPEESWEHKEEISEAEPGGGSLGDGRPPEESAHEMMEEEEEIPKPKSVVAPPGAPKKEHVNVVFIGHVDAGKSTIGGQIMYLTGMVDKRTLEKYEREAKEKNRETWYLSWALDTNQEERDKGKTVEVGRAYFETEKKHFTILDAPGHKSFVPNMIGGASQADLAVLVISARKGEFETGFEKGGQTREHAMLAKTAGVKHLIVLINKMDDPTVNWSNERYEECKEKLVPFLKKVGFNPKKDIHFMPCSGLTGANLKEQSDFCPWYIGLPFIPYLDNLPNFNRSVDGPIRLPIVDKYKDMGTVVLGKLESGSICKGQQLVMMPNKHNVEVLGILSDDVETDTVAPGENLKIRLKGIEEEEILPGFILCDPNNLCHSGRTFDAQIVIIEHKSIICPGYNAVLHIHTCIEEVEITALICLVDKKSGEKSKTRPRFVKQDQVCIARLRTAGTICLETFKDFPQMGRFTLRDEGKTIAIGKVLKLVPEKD
T5 sequence (Q96SW2 whole entry partner): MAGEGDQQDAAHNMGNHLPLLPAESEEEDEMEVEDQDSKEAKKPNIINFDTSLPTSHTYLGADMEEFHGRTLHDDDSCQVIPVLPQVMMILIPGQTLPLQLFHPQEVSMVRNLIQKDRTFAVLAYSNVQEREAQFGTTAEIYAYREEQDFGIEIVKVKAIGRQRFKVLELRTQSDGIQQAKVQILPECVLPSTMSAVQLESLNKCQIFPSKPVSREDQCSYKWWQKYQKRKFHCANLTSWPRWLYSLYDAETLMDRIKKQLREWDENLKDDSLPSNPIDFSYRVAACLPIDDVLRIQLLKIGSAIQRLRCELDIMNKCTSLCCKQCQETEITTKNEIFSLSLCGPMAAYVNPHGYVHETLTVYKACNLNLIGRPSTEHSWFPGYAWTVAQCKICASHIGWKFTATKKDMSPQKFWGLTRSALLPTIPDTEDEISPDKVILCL
T5 sequence (Q16531 2-1140 partner): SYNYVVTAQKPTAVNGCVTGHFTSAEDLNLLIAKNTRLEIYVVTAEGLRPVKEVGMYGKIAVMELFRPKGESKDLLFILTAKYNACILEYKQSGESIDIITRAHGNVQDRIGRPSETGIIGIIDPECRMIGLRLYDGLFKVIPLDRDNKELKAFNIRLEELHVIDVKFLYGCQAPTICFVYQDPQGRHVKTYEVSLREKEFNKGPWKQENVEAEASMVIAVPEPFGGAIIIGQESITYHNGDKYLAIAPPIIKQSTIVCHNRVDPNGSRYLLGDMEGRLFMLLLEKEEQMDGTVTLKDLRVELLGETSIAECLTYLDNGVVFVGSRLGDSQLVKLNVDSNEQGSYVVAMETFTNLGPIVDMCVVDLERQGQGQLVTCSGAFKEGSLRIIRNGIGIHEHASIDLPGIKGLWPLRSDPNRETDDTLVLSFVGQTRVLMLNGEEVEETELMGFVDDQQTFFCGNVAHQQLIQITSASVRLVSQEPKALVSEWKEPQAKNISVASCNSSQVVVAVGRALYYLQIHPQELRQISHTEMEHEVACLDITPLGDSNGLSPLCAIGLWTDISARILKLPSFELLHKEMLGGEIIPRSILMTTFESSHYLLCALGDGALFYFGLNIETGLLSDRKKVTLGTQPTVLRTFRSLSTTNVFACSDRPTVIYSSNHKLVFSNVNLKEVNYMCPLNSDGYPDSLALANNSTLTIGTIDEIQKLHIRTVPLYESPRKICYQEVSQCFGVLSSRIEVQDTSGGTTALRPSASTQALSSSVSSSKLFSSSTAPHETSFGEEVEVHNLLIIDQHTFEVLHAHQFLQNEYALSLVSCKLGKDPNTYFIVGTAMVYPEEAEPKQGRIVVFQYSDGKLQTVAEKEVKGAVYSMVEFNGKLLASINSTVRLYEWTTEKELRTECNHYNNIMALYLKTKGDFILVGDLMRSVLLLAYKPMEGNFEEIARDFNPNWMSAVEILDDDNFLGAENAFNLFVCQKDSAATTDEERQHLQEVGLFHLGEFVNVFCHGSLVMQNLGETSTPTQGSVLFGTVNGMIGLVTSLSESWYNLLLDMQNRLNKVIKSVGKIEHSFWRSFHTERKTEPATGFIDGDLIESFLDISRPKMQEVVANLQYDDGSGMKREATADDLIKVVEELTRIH
T4 sequence (P15170 1-637 isoform P15170-3 G575N): as the sequence (P15170 1-637 isoform P15170-3) above, with G575N counted along it
T4 sequence (Q96SW2 whole entry partner): as the sequence (Q96SW2 whole entry partner) above
T4 sequence (Q16531 2-1140 partner): as the sequence (Q16531 2-1140 partner) above
T1 sequence (Q96SW2 whole entry): as the sequence (Q96SW2 whole entry partner) above
T3 sequence (Q96SW2 whole entry): as the sequence (Q96SW2 whole entry partner) above
T3 sequence (P15170 1-637 isoform P15170-3): as the sequence (P15170 1-637 isoform P15170-3) above
T2 sequence (Q96SW2 whole entry Y384A/W386A): as the sequence (Q96SW2 whole entry partner) above, with Y384A, W386A counted along it
T2 sequence (P15170 1-637 isoform P15170-3, stated change not applied): as the sequence (P15170 1-637 isoform P15170-3) above

## O=C1CCC(N2Cc3cc(CNC(=O)C(F)(F)c4ccc(Cl)cc4)ccc3C2=O)C(=O)N1 (stereo not drawn) [Compound D, 2-(4-chlorophenyl)-N-((2-(2,6-dioxopiperidin-3-yl)-1-oxoisoindolin-5-yl)methyl)-2,2-difluoroacetamide]
Cereblon to IKZF1
  binding of cereblon to IKZF1: not IKZF1
Cereblon to GSPT1 [1]
  binding of cereblon mutant Y384A and W386A to GSPT1: completely abolished the binding of cereblon
Cereblon to GSPT1 [2]
  binding of cereblon to GSPT1: promoted the binding of cereblon to GSPT1
GSPT1 [3]
  Compound D-induced degradation of GSPT1-G575N: conferred complete resistance to Compound D-induced degradation
GSPT1 [4]; KG1, U937, MOLM-13, OCI-AML2, pretreatment 30 minutes
  downregulation of GSPT1 by Compound D under bortezomib, MLN4924 or knockout of CRBN: completely blocked
GSPT1 [4]; U937, OCI-AML2
  Compound D induced GSPT1 degradation after ILF2 or ILF3 knockout: drastically reduced cereblon protein levels, and hence Compound D-induced GSPT1 degradation; also recorded: attenuated Compound D induced GSPT1 degradation
GSPT1 [4]; U937-Cas9 parental
  GSPT1 expression, cotreatment with cycloheximide: downregulated GSPT1 expression
GSPT1 [4]; U937 TSC1-/- and TSC2-/-
  GSPT1 expression, cotreatment with cycloheximide, TSC1 or TSC2 loss: largely abrogated this effect
GSPT1 [4]; U937 and OCI-AML2
  Compound D induced GSPT1 degradation after TSC1 or TSC2 knockout: partially blocked GSPT1 degradation induced by Compound D; also recorded: Attenuated Compound D induced GSPT1 degradation
